Reference: patent US20190331687A1, “CANCER TREATMENT” (PFIZER INC., priority 2014, published 2019)

System: metastatic renal cell carcinoma (mRCC)
Experiment: Study A4061032 (AXIS phase 3 trial): PFS and OS of axitinib-treated mRCC patients by tumor CD68 IHC stratum (median cut off)
Type: in vivo, human
Details: for median OS / median progression free survival (PFS): regardless of prior treatment
Source text: Study A4061032 (ClinicalTrials.gov Identifier: NCT00678392) was a phase 3 registrational trial entitled “Axitinib (AG-013736) as second line therapy for metastatic renal cell cancer: Axis trial”. […] A total of 650 patients were planned to be enrolled, and 723 subjects were eventually enrolled in the study.
As described in further detail in the Examples, formalin-fixed paraffin embedded (FFPE) tumor samples were collected from patients who participated in A4061032, and who provided specific consent for collection of tumor sample. Tumor myeloid (cluster of differentiation 68 “CD68”) or lymphocyte (cluster of differentiation 3 “CD3”) infiltration was assessed by immunohistochemistry (IHC) in tumor samples from 52 axitinib-treated patients. The aim was to investigate the potential association of these biomarkers with efficacy, consistent with the hypothesis that myeloid infiltration confers resistance to anti-angiogenic agents targeting the VEGF-VEGFR2 pathway (see Shojaei et al. (2007) Nat. Biotechnol. 25(8):911-920; and Lin et al. (2010) Eur. J. Cancer Suppl. 8(7): 191).
The evaluation of CD3 and CD68 was performed by image analysis from a whole slide scan. The region of interest was circled, and an image analysis algorithm was run. The percentage of positive cells (number of positive cells/total number of cells) and the density of positive cells (e.g. number of positive cells/mm^2) was measured. Some patients donated FFPE blocks, and some donated slides cut from blocks. Samples from all patients were analyzed, whether they were provided as slides or blocks.
This study was a 2-arm, randomized, open-label, multi-center phase 3 study of axitinib versus sorafenib in patients with metastatic renal cell carcinoma (mRCC), after failure following one prior systematic first-line regimen containing one or more of the following agents: sunitinib, bevacizumab+IFN α, temsirolimus, or cytokine(s). Overall, 723 patients with mRCC were randomized and enrolled in this study, among which 52 axitinib-treated patients were evaluable for immunohistochemistry (IHC) analysis; further, 33 of the 52 patients were previously treated with Sutent®.
All 52 patients were evaluable for both CD3 and CD68. Of the 52 CD3 and CD68 evaluable patients, 26 donated formalin-fixed paraffin embedded (FFPE) tumor blocks, and 26 donated slides for analysis. Mosaic Laboratories provided FFPE material representing human normal and human cancer. Specimens were procured under an IRB-reviewed protocol (MOS001) that allows for use of remnant, de-identified, or anonymized human samples for in vitro analysis under the guidelines defining ‘Exemption from Human Subject Research’ as defined by the Office of Human Research Protection. The CD68 mouse monoclonal KP1 antibody (Catalog# M0814, Lot#46406, Expiration date: September 2011) was purchased from Dako (Carpinteria, Calif., United States) and stored at 2-8° C. in accordance with accompanying documentation. The mouse IgG isotype control antibody (Lot#37211, Expiration date: July 2010) was purchased from Dako and stored at 2-8° C. in accordance with accompanying documentation. IHC was performed in accordance with Mosaic Laboratories' SOPs. The CD68 IHC assay was designed and validated to be compatible with CLIA guidelines for “homebrew” class I test validation.
For IHC biomarker analysis, the Biomarker Analysis Set was used, which included all patients who received at least one dose of study treatment. The following efficacy endpoints were analyzed: PFS, OS, and objective response rate (ORR). Summary statistics were provided for percent and density of positive cells by response category (complete response [CR]+partial response [PR] versus stable disease [SD]+progressive disease [PD]) for each marker). The Wilcoxon Rank Sum test was performed to test for difference between response categories. Fisher's exact test was used to test for association between response category and biomarker stratum using median value as cut off point.

[1] = patients with <median CD68 cell density (cut off 0.08 cells/mm^2)
[2] = patients with <median CD68 percentage of positive cells (cut off 5.21%)
[3] = patients with >=median CD68 cell density (cut off 0.08 cells/mm^2)
[4] = patients with >=median CD68 percentage of positive cells (cut off 5.21%)

Structure (SMILES): CNC(=O)c1ccccc1Sc1ccc2c(/C=C/c3ccccn3)n[nH]c2c1 [axitinib, 6-[2-(methylcarbamoyl)phenylsulfanyl]-3-E-[2-(pyridin-2-yl)ethenyl]indazole]
- hazard ratio (HR) for OS (>=median vs <median CD68 values, all cases, not statistically significant): > 0.6
- hazard ratio [HR] for PFS (>=median vs <median CD68 values, logrank p-value<=0.01, all patients regardless of prior treatment): 0.42
- median OS [1]: 17.8 months
- median progression free survival (PFS) [1]: 3.8 months
- median OS [2]: 21.8 months
- median progression free survival (PFS) [2]: 3.7 months
- median OS [3]: 22.6 months
- median progression free survival (PFS) [3]: 12.0 months
- median OS [4]: 20.0 months
- median progression free survival (PFS) [4]: 12.0 months
